Test results from US20260098017A1, “NOVEL AROMATIC RING DERIVATIVE CONTAINING AMIDE SUBSTITUTION AND USE THEREOF” (TIANJIN PHARMACEUTICAL BIOTECHNOLOGY CO., LTD., priority 2022, published 2026).

What was measured:
JAK1 JH1 kinase = JAK1 JH1 kinase (Homo sapiens, UniProt P23458); test: JAK1 JH1 enzyme assay in vitro (TR-FRET); type: biochemical; settings: read-out: JAK 1 JH1 IC50
[1] = test system: imiquimod-induced mouse psoriasis-like model; test: Imiquimod-induced mouse psoriasis-like model (PASI score); type: in vivo; settings: oral gavage, 10 mg/kg, 25 mg/kg, 50 mg/kg, bid, compared with the model group
TYK2 JH1 kinase = target: T1, TYK2 JH1 kinase (Homo sapiens, UniProt P29597); test: TYK2 JH1 enzyme assay in vitro (TR-FRET); type: biochemical
T1 sequence (P29597 897-1176 limits assumed): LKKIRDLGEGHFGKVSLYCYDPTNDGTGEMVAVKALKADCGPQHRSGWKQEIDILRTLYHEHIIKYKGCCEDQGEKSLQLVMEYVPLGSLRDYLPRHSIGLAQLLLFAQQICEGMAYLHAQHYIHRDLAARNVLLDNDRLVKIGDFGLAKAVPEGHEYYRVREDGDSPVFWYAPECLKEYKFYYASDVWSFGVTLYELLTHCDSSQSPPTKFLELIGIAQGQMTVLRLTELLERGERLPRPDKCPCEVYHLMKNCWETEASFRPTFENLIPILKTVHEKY

JAK3 JH1 kinase = JAK3 JH1 kinase (Homo sapiens, UniProt P52333); test: JAK3 JH1 enzyme assay in vitro (TR-FRET); type: biochemical; settings: TR-FRET; read-out: JAK 3 JH1 IC50
SD rats = test: Four-week repeat-dose toxicity study in rats; type: in vivo; settings: rat, 28 days, 2% cream 500 mg bid topical, 100 mg/kg
Method: Each group contained 10 animals, with an equal number of males and females.
The treatment lasted for four consecutive weeks (28 days).
• Daily clinical observation and body weight measurement; • After the last administration, rats were fasted for more than 16 h, anesthetized on the next day, and blood was collected from abdominal aorta. Tests such as hematology (EDTA-2K anticoagulation), blood biochemistry (serum), coagulation function (separated plasma with sodium citrate anticoagulation) and the like were respectively carried out; • After euthanization of the animals, the tissue organs were dissected and observed in general, and organ weights and coefficients (heart, liver, spleen, kidney, thymus) were determined; • The skin and lung tissues of the administration site were taken for HE staining to observe the changes in epidermal thickness, dermal inflammatory cells and pulmonary lesions.

[2] = test system: mouse asthma model induced by OVA; test: Mouse asthma model induced by OVA: inflammatory cells in bronchoalveolar lavage fluid; type: in vivo
Method: The efficacy of the compounds according to the present invention in a mouse asthma model induced by OVA could be assessed using the following method:
Test sample: the compound of Example 3 was weighed accurately, and dissolved in DMSO to prepare a solution at a concentration of 2 mg/mL.
30 female BALB/c mice were adaptively fed. After one week, 10 mice were randomly taken out and fed as a blank control group, and 20 mice were selected to establish the asthma model. The model mice were intraperitoneally injected with 0.2 mL of sensitizing solution for sensitization respectively on 0, 7 and 14 days. The sensitization solution contained 50 μg of OVA and 2 mg of Al(OH)3. The blank control group received an equivalent volume of physiological saline.
From day 21 to day 23 after sensitization, the mice in the model group and the administration group were subjected to nebulization stimulation with 5% OVA for 30 min, and the mice in the blank control group received nebulization with physiological saline for the same duration.
30 min before daily stimulation of the mice, 50 μl of physiological saline was administered endotracheally to mice in the blank control and model groups, and 50 μl of the corresponding drug was administered endotracheally to mice in the Example 3 compound group, once daily for 3 consecutive days.
After the airway hyperresponsiveness measurement, the mice were euthanized by cervical dislocation and fixed on a dissecting tray. The abdomens and thoracic cavities of the mice were opened, and the neck skin and excess tissues were excised to expose the mouse trachea. A small incision was made on the transverse axis of the trachea with small scissors, a pre-prepared 1 mL syringe needle was inserted therein, and the needle was fixed with surgical thread. 0.5 mL of pre-cooled phosphate-buffer solution (PBS) was aspirated with a 1 ml syringe and slowly injected into the lungs of the mice, followed by slow withdrawal. Each mouse was lavaged once, and a total of about 0.4 mL of lavage fluid was collected. The number of inflammatory cells in the bronchoalveolar lavage fluid was measured by a cell counter.
Statistical analysis was conducted using SPSS software, Measurement data were expressed as mean±standard deviation. One Way ANOVA was used for inter-group comparisons, LSD test was used for those with homogeneous variance, and Dunnett-t test was used for those with heterogeneous variance. Differences were statistically significant with P<0.05.

hERG channel = target: T2, hERG channel (Homo sapiens, UniProt Q12809); test: hERG potassium channel inhibition assay (manual patch clamp); type: cell-based; settings: HEK-293 cell line stably expressing hERG channel, at the tested concentrations
T2 construct: expressed in transfected cells; host or cells: HEK-293
Method: Instrumentation: HEKA EPC 10 patch clamp amplifier.
Method: in this experiment, the blocking effect of the compounds on the current of the HEK-293 cell line stably expressing hERG channel was measured using the manual patch clamp technique, and the risk of the compounds on the inhibition of cardiac hERG potassium channel was assessed by fitting the concentration effect relationship.
Procedure: in the patch clamp operation, firstly, a capillary glass tube was pulled into a recording electrode using a microelectrode puller, then an electrode filled with intracellular solution was mounted into a microelectrode holder. A microelectrode manipulator was operated under an inverted microscope to immerse the electrode into an extracellular solution and the electrode resistance (Rpip) was recorded. Then, the electrode was slowly brought into contact with the cell surface, and a negative pressure was applied for suction to form a GΩ seal. At this point, a fast capacitance compensation was performed, and a negative pressure was continuously applied to suck and break the cell membrane to form a whole cell recording mode. Finally, a slow capacitance compensation was performed and experimental parameters including series resistance (Rs) and the like were recorded. No leakage compensation was performed. When the hERG current recorded by the whole cell was stable, the administration of drugs commenced, and each drug concentration acted for about 5 min (or until the current stabilization) before detecting the next concentration. A cover glass covered with cells was placed in a recording bath under an inverted microscope, the blank control extracellular solution and the working solution of the compounds to be tested sequentially flowed through the recording bath from low concentration to high concentration by using gravity perfusion to act on the cells, and solution exchange was performed using a peristaltic pump during recording. The current measured by each cell in the extracellular solution without the compound served as its own control group. Each concentration was independently assessed twice. All electrophysiological tests were performed at room temperature.
Data Analysis: firstly, the tail current (Peak tail currentcompound) after the action of each drug concentration and the blank control tail current (Peak tail currentcontrol) were normalized, then the inhibition rate
corresponding to each drug concentration was calculated, and the mean (Mean), standard deviation (SD) and standard error (SE) of the inhibition rate corresponding to each concentration were calculated, with data expressed as Mean±SE. The calculation of IC50 value and the fitting of dose-response curve for the compound were performed using GraphPad Prism software.

[3] = 2 mg/mL, 50 μL endotracheally, once daily for 3 days

Sequence of JAK1 JH1 kinase (P23458 875-1153 limits assumed): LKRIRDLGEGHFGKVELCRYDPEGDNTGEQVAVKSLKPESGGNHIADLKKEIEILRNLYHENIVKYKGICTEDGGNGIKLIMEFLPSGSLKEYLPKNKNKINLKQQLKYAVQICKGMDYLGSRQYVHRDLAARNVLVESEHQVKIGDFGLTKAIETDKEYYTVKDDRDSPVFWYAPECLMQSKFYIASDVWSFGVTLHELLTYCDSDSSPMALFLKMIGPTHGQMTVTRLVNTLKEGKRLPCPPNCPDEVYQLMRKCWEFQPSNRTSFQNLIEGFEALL
Sequence of JAK3 JH1 kinase (P52333 822-1111 limits assumed): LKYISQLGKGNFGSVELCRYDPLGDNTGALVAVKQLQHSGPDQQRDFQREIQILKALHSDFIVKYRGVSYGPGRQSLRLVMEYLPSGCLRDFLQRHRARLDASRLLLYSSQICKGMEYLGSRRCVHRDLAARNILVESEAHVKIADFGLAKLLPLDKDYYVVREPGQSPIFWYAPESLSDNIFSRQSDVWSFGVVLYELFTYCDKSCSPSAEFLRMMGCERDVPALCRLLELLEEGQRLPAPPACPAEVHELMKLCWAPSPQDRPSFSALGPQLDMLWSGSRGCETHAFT
T2 sequence (Q12809 whole entry): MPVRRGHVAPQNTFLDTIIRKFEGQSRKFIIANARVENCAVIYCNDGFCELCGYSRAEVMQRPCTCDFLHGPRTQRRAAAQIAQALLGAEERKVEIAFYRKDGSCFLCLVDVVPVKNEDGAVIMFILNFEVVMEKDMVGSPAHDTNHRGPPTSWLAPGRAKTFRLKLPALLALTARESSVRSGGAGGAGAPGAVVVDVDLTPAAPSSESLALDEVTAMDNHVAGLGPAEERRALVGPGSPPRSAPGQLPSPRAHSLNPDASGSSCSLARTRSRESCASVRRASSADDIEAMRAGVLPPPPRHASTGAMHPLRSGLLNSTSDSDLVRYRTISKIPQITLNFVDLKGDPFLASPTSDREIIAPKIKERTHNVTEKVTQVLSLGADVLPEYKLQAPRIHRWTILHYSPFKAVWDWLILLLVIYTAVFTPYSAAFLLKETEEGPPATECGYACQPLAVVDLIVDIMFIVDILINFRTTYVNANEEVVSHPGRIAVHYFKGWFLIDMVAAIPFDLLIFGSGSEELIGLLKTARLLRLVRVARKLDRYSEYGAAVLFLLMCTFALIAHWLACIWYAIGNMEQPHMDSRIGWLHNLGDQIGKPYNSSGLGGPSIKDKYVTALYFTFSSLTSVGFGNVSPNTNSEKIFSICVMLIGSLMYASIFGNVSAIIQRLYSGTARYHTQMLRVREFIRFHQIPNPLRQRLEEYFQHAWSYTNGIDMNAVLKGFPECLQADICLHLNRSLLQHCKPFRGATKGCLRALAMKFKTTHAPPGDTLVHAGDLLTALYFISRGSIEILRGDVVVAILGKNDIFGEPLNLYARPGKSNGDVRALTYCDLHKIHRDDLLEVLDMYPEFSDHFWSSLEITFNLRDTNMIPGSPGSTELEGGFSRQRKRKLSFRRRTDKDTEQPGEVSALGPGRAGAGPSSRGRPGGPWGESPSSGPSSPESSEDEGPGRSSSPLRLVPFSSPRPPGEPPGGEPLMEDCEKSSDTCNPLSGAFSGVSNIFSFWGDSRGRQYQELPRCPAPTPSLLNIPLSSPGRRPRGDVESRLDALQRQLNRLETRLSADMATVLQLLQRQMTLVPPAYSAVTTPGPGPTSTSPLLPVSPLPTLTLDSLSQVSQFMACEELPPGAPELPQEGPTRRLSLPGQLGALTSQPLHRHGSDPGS

In the case of `[2H]C([2H])([2H])NC(=O)c1nnc(NC(=O)C2CC2)cc1Nc1cccc(C(=O)Nc2cccc(C)c2)c1OC` [Example 3], the IC50 (JAK1 JH1 kinase) is reported as > 10 µM, the “Improvement of psoriasis symptoms by oral administration” value [1] is reported as “effectively improve psoriasis symptoms” and the IC50 (TYK2 JH1 kinase) is reported as > 10 µM. The IC50 (JAK3 JH1 kinase) was > 10 µM, the “Effects on general state, body weight, organ coefficient, skin and pulmonary pathology, and other hematological, coagulation and blood biochemical indicators” value (SD rats) was “no significant effects” and the “Hematology Gran” value (SD rats) was 1.7 ± 1.0 ×10^9/L. For the same molecule, the “Hematology Lymph” value (SD rats) was 6.4 ± 2.7 ×10^9/L, the “Hematology Mono” value (SD rats) was 0.2 ± 0.1 ×10^9/L and the “Hematology PLT” value (SD rats) was 1001.8 ± 408.1 ×10^9/L. For the same molecule, the “Number of inflammatory cells: Leukocyte” value [2, 3] was 1,241.7 ± 618.1 ×10^3, the “Number of inflammatory cells: Lymphocyte” value [2, 3] was 791.7 ± 524.9 ×10^3 and the “Number of inflammatory cells: Monocyte” value [2, 3] was 58.3 ± 37.0 ×10^3. The “Number of inflammatory cells: Neutrophil” value [2, 3] was 391.7 ± 206.3 ×10^3, the “Effect on number of inflammatory cells (white blood cells, lymphocytes) compared with the model group” value ([2]; pre-administration before stimulation) was “significantly reduce the number of inflammatory cells” and the hERG inhibition (hERG channel) was “no significant inhibition”.
